Experimental data reported in patent EP1377579B1 (Aventis Pharmaceuticals Inc., priority 2000, dated 2002).
Read-outs that look alike come from different tables or passages of the source.

Key:
[1] = test system: PC-3; assay: In vitro proliferation assay (MTT), PC-3; type: cell-based, human; conditions: Homo sapiens
How it was run: (§1)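 Tetrazolium (MTT) reduction measures live cells remaining after 3 days with test compound, following overnight attachment at 1000–2500 cells/well. Dye is taken up in DMSO and read at 570 nm.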

[2] = test system: Jurkat; assay: In vitro proliferation assay (MTT), Jurkat; type: cell-based; conditions: Homo sapiens, MTT assay, value (SD, n) where given, read-out: Jurkat Leuk. (IC50 µM)
How it was run: (§2)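 Overnight-recovered cultures (1000–2500 cells/well) were treated with compound for 3 days and then given MTT at 37 C for 2–4 hr. Dye was extracted with DMSO and read at 570 nm. IC50s were fitted to the absorbance-versus-concentration data.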

[3] = test system: NCI-H460; assay: In vitro proliferation assay (MTT), NCI-H460; type: cell-based; conditions: Homo sapiens
How it was run: as §2

[4] = test system: MDA-MB-435; assay: In vitro proliferation assay (MTT), MDA-MB-435; type: cell-based, human; conditions: Homo sapiens
How it was run: as §1

[5] = test system: neuronally differentiated PC12 cells, rat sympathetic neurons; conditions: cited from earlier work; for concentration of maximal protection from death: camptothecin-treated PC12 cells or rat sympathetic neurons; for cell death: camptothecin-treated, at day 6
[6] = test system: Colo-205; assay: In vitro proliferation assay (MTT), Colo-205; type: cell-based; conditions: Homo sapiens
How it was run: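 After 3 days of compound exposure, MTT was added to Colo-205 cultures for 2–4 h at 37 °C. Formazan was dissolved in DMSO and absorbance read at 570 nm. Cells had been plated at 1000–2500/well and left to recover overnight; IC50 values came from the raw readings.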

[7] = test system: cortical neuronal death; conditions: cited from earlier work; for IC50: Park et al. 1997, read-out: IC50, protection against camptothecin-induced cortical neuronal death
[8] = test system: HL-60; assay: In vitro proliferation assay (MTT), HL-60; type: cell-based; conditions: Homo sapiens, HL-60; MTT assay; value (SD, n) where given; read-out: HL-60 Leuk. (IC50 µM)
How it was run: as §2

[9] = test system: HL-60 Human Leukemia; assay: HL-60 human leukemia xenograft in nude mice; type: in vivo; conditions: Table 5
Procedure: (§3) Antitumor efficacy is assessed using two subcutaneous human tumor xenograft models. The studies are performed using conventional assay techniques. Briefly, HL-60 (leukemia, 5 x10^5 cells) and PC-3 (prostate, 5 x 10^6 cells) tumor cells are injected subcuateously into nude mice (Crl-CD1-Br-nu, Charles River Laboratory, Wilmington, MA). Dosing with compounds began when tumors reached 50 to 100 mm^3. The dose route/schedule for the test compounds is ip/qld (5x/wk). The test doses are set based on the maximum tolerated dose (MTD). […] The test doses for the efficacy studies are set at 1/3rd the MTD (low dose) and the MTD (high dose). The results are shown in Tables 4 and 5 (HL-60, leukemia) (PC-3, prostate cancer). The length of the treatment phase is dependent on the tumor growth rate for the two models. This treatment phase is typically about 3 weeks for the HL-60 model and about 5 weeks for the PC-3 model. […] Dosing with flavopiridol is for the same time frame as for the experimental compounds in both xenograft models. Tumor volume (twice weekly) and body weights (once weekly) are monitored throughout the course of the treatment phase of the experiment. Tumor sizes are measured by external caliper measurements of protruding tumor. Volumes are calculated using the following formula: volume =½ (a x b2), where b is the smaller of two perpendicular diameters.

[10] = Red blood cell binding, mouse whole blood; type: in vitro ADME; conditions: 30 minutes at 37°C, 500 ng/ml
Procedure: (§4) Compounds, including one positive control, are assessed for red blood cell (RBC) uptake, using a modified procedure based on the protocol reported in Sun, J.X.S., et al. High-performance liquid chromatographic analysis, plasma protein binding and red blood cell partitioning of phenprobamate. Biopharmaceutics and Drug Disposition, 8 (1987) 341-351.
(§5) Briefly, RBC uptake is evaluated by comparison of the levels in spiked plasma (n=3) and plasma isolated from spiked whole blood (n=3). Compounds are incubated with human and mouse whole blood, respectively, for 30 minutes at 37°C using a nominal concentration of 500 ng/ml. Following centrifugation, the plasma is removed and submitted for analysis. Each compound is also spiked into blank plasma at a nominal concentration of 500 ng/ml, and submitted for analysis. Levels in the two plasma samples (Cp' and Cp in the equation below) and the blood hematocrit are used to determine the red blood cell to plasma ratio (Crbc/Cp). (Crbc)/(Cp) = (Cpʹ)/(Cp•H)-((1-H))/(H) [formula] In equation 1, Cp' is the level of drug in the spiked "blank" plasma, Cp is the level of drug in the plasma of spiked whole blood, and H is the hematocrit. The hematocrit values are determined as 0.4 for human whole blood and 0.41 for mouse whole blood. The samples are analyzed with ESI LC/MS, using positive ion detection with an internal standard.
(§6) The red blood cell to plasma ratio is determined for each compound using equation 1. Tables 6 and 7 summarize the respective mean Crbc/Cp values and standard deviations for mouse and human whole blood, respectively, in descending order based on the red blood cell to plasma ratio, where"*" denotes Positive Control, and "ND" denotes Not Determined. MDL 108552 is included as a positive control for red blood cell uptake. Table 6. Red Blood Cell to Plasma Ratio for compounds in mouse whole blood

[11] = Bioavailability experiment in mice given single intravenous cassette doses
Procedure: (§7) Male mice are given single intravenous cassette doses of CDK inhibitor compounds.
(§8) Doses are adjusted for the weight of the individual dihydrochloride and trihydrochloride salts. The compounds are stored desiccated within a closed cabinet at room temperature before use. Dose levels are prepared on the morning of each study.
(§9) A single intravenous cassette dose (18 or 15 mg/kg free base) is administered. For each compound, this is equivalent to a dose of approx. 3 mg/kg free base. […] The dose is administered at a volume of 10 ml/kg (total volume of approximately 0.25 ml/animal).
(§10) Male mice (Hsd:ICR (CD-1® SD®), Harlan), each weighing approximately 20 - 30 g at the start of the study. […] Water is available ad libitum throughout the study.
(§11) Dose Administration and Sample Collection: • A single cassette dose of 5-6 compounds is administered by bolus injection into the tail vein over a 10 - 15-second period. […] Whole blood (approximately 0.6 ml/sample) is obtained by cardiac puncture and transferred to 3 ml glass tubes containing 45 U sodium heparin.
(§12) Sample Processing: Plasma: Whole blood is centrifuged at approximately 3,200 rpm for 10 min at approximately 5°C and the plasma (approx. 0.3 ml/sample) is transferred to chilled plastic vials and stored at approx. -70°C until bioanalysis.
(§13) Sample Analysis: Concentrations of each test article in plasma are quantitated by a non-validated method based on LC/MS using the following protocol.
(§14) Samples are removed from the freezer, allowed to thaw at room temperature, and vortexed to insure complete homogenization prior to sample manipulation. Samples are then prepared according to the following scheme: • 1. transfer 48 µL of plasma (blank mouse sample) into a 12 x 75 mm test tube. • 2. add 12 µL of working standard to the blank plasma for standard curve preparation. • 3. […] Inject 25 µL on LC/MS.
(§15) Data Analysis: Concentrations of Compounds in plasma of individual animals are determined by bioanalytics. […] Statistical analyses are limited to simple expressions of variation (mean and standard deviation). The plasma AUC (area-under-curve) is determined by the linear trapezoidal rule. […] All PK parameters are determined by noncompartmental methods using WinNonlin version 3.0 (Pharsight Corp). Plasma vs. time profiles are prepared by Sigma Plot (SPSS, Inc.).

[12] = biological target: cdk4/cyclin D1 (Homo sapiens, UniProt P11802); assay: Cyclin-dependent kinase assay, cdk4/cyclin D1; type: biochemical; conditions: cyclin D1/cdk4; GST-pRb substrate, 10 µM ATP
Chain of cdk4/cyclin D1 (P11802 whole entry): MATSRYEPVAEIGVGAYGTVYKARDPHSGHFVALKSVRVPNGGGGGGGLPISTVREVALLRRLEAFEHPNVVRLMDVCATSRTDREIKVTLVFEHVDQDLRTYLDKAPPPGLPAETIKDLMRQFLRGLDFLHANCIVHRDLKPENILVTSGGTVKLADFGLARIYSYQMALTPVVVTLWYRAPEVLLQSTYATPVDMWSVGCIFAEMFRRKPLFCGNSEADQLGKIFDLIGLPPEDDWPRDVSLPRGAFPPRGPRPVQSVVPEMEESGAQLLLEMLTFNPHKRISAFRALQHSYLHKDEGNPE
Chain of cdk4/cyclin D1 (P24385 whole entry partner): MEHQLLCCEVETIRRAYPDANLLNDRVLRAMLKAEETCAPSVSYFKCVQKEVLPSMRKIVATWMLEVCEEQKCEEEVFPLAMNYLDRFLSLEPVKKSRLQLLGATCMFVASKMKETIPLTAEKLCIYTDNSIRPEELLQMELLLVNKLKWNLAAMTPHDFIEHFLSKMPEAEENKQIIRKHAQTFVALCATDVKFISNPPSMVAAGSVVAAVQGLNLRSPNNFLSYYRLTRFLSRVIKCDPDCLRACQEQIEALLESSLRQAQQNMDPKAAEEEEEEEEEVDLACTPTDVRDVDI

[13] = biological target: cdk1/cyclin B (Homo sapiens, UniProt P06493); assay: Cyclin-dependent kinase assay, cdk1/cyclin B; conditions: CDK1 IC50, nM, Histone H1, 10 µM ATP
Chain of cdk1/cyclin B (P06493 whole entry): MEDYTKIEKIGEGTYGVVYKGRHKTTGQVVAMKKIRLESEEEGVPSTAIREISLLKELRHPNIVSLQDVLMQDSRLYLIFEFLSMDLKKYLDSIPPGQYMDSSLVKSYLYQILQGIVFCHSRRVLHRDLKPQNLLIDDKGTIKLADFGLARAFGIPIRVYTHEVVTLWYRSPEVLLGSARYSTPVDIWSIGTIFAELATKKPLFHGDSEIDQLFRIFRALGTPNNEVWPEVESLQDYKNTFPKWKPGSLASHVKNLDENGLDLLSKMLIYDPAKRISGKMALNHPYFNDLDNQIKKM
Chain of cdk1/cyclin B (P14635 whole entry partner): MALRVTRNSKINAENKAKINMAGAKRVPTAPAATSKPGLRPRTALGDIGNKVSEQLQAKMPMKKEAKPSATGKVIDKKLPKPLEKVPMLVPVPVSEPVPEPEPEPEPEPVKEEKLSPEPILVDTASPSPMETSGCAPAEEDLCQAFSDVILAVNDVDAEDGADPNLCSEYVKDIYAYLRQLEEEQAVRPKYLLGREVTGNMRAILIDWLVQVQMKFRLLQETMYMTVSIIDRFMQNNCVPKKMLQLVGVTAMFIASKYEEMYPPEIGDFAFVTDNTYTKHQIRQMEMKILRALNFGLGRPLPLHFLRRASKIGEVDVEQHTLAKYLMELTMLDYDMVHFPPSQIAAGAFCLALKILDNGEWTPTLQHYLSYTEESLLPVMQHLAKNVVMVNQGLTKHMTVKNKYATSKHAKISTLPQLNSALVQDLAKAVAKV

[14] = biological target: cdk2/cyclin E (Homo sapiens, UniProt P24941); assay: Cyclin-dependent kinase assay, cdk2/cyclin E; conditions: CDK2 IC50, nM, GST-pRb substrate, 10 µM ATP
[15] = test system: PC-3 Human Prostate Tumors; assay: PC-3 human prostate tumor xenograft in nude mice; type: in vivo; set-up: unit not given here; conditions: Table 5
Procedure: as §3

[16] = Red blood cell binding, human whole blood; type: in vitro ADME; conditions: 30 minutes at 37°C, 500 ng/ml
Procedure: as §4, §5, §6

[17] = in vivo; conditions: male, Hsd:ICR (CD-1), mouse, plasma, iv
Procedure: as §7, §8, §9, §10, §11, §12, §13, §14, §15

[18] = camptothecin-treated neuronal cells

CN1CC[C@H](c2c(O)cc(O)c3c(=O)cc(-c4ccccc4Cl)oc23)[C@H](O)C1 [Flavopiridol, flavopiridol, reference compound]
IC50 ([1]; PC-3, MTT assay, value (SD, n) where given, read-out: PC-3 Prostate (IC50 µM)): 0.08 µM
IC50 [2]: 0.08 µM
IC50 ([3]; NCI-H460, MTT assay, value (SD, n) where given, read-out: H-460 Lung (IC50 µM)): 0.07 µM
IC50 ([4]; MDA-MB-435, MTT assay, value (SD, n) where given, read-out: MB-435 Breast (IC50 µM)): 0.09 µM
concentration of maximal protection from death [5]: 1 µM
cell death [5]: approximately 30%
IC50 ([6]; COLO 205, MTT assay, value (SD, n) where given, read-out: Colo-205 Colon (IC50 µM)): 0.03 µM
IC50 [7]: 100 nM
IC50 [8]: 0.02 µM

Cn1cnc2c(NCc3ccccc3)nc(NCCO)nc21 [Olomoucine, 6-(benzylamino)-2-[(2-hydroxyethyl)amino]-9-methylpurine]
concentration of maximal protection from death [5]: 200 µM
cell death [5]: approximately 30%
IC50 [7]: 100000 nM

Cl.Cl.N[C@H]1CC[C@H](Nc2nc(NC3CCN(C(=O)Oc4ccccc4)CC3)c3ncn(C4CCCC4)c3n2)CC1 [compound 85, trans-4-[2-(4-Amino-cyclohexylamino)-9-cyclopentyl-9H-purin-6-ylamino]-piperidine-1-carboxylic acid phenyl ester dihydrochloride]
HL60 Mean Vol. ± SD ([9]; dose 1 mg/kg ip): 3590 ± 2674
HL60 Mean Vol. ± SD ([9]; dose 3 mg/kg ip): 5215 ± 4068
IC50 ([1]; PC-3, read-out: PC-3 Prostate (IC50 µM)): 0.06 µM
Mean Red Blood Cell to Plasma Ratio [10]: 6.1
Conc. (ng/ml) in plasma ([11]; Cassette #1, single 18 mg/kg intravenous cassette dose, mice, 24 h, BLQ = below assay quantification limit): BLQ
Cls ([11]; mice plasma, single intravenous cassette dose, 3 mg/kg/compound (18 mg/kg Total Dose), Cassette #1): 107.1 mL/min/kg
IC50 ([3]; NCI-H460, read-out: H-460 Lung (IC50 µM)): 0.06 µM
IC50 [12]: 65 nM
IC50 [13]: 26 nM
IC50 ([4]; MDA-MB-435, read-out: MB-435 Breast (IC50 µM)): 0.03 µM
IC50 [14]: 8 nM
PC-3 Mean Vol. ± SD ([15]; dose 1 mg/kg ip): 912 ± 755
PC-3 Mean Vol. ± SD ([15]; dose 3 mg/kg ip): 1208 ± 1247
IC50 ([6]; COLO 205, read-out: Colo-205 Colon (IC50 µM)): 0.03 µM
Mean Red Blood Cell to Plasma Ratio [16]: 7.1
AUC(0-inf) ([17]; 3 mg/kg): 467 ng·h/mL
Cmax ([17]; 3 mg/kg): 843 ng/mL
half-life ([17]; 3 mg/kg): 2.3 h
concentration at 0.083 h ([17]; 18 mg/kg): 843 ± 124 ng/mL
concentration at 0.25 h ([17]; 18 mg/kg): 342 ± 45.1 ng/mL
concentration at 0.5 h ([17]; 18 mg/kg): 164 ± 15.7 ng/mL
concentration at 1 h ([17]; 18 mg/kg): 89 ± 21.5 ng/mL
concentration at 3 h ([17]; 18 mg/kg): 14.3 ± 7.1 ng/mL
concentration at 6 h ([17]; 18 mg/kg): 5.2 ± 1.9 ng/mL
concentration at 8 h ([17]; 18 mg/kg): 3.2 ± 0.8 ng/mL

Cn1cnc2nc(NCCO)nc(NCc3ccccc3)c21 [iso-olomoucine]
prevention of cell death [5, 18]: failed to prevent the cell death
prevention of cell death [7, 18]: failed to prevent the cell death
